Measured values from PMC7443224, “An UPLC-MS/MS Method for Simultaneous Quantification of the Components of Shenyanyihao Oral Solution in Rat Plasma” (BioMed Research International, 2020).
“And” between values parts separate entries of the source, which are not always exact repeats. Equal values may be shown once.

Experiment: Pharmacokinetic study in rat plasma after oral administration of Shenyanyihao oral solution (UPLC-MS/MS, noncompartmental)
Assay type: in vivo, Sprague-Dawley rats
Details: for Cmax / Tmax / half-life / MRT: male, Sprague-Dawley; for Cmax: plasma; for MRT: read-out: MRT0‐∞
Description: Male Sprague-Dawley rats (180–220 g) were purchased from Shanghai SLAC Laboratory Animal Co., Ltd. (Shanghai, China) and housed in an environmentally controlled room with a natural light-dark cycle for 7 days before the experiment was carried out. The male Sprague-Dawley rats were randomly given a dose of 10 g/kg/day of Shenyanyihao oral solution by oral administration for pharmacokinetic experiments. All animal experiments were carried out according to the Guidelines for the Care and Use of Laboratory Animals and were approved by the Animal Ethics Committee of the Second Military Medical University.
The protein precipitation with methanol was applied for sample preparation. 50 μl of plasma spiked with 50 μl of mixed IS solution were thoroughly mixed with 100 μl methanol by vortexing for 30 s. The mixture was centrifuged at 12,000 rpm for 5 min. An aliquot of 100 μl from the supernatant was transferred and subsequently evaporated to dryness by vacuum concentration. Five μl of the supernatant was transferred for the UPLC-MS/MS analysis.
The analytes in plasma were measured by a simple and sensitive UPLC-MS/MS method. Chromatographic analysis was performed on an Agilent 1290 Infinity UPLC system consisting of a binary pump, a surveyor autosampling system, and a thermostatted column compartment. An Agilent Poroshell 120 EC-C18 column (3.0 mm × 100 mm, 2.7 μm) was used for chromatographic separation. The mobile phases of A (acetonitrile) and B (0.1% formic acid aqueous solution) were eluted at a flow rate of 0.4 ml/min with the following gradient conditions: 0-5 min, 50% A; 5-6 min, 50%-90% A; and 6-10 min, 90% A. The column temperature was maintained at 25°C, the autosampler was conditioned at 4°C, and the injection volume was 5 μl. The analysis time was 10 min per sample. An Agilent 6470 tandem mass spectrometer (Agilent Technologies, USA) equipped with an Agilent Jet Stream Technology (AJS) electrospray source interface (ESI) was used for MS detection. The mass spectrometric detection was optimized simultaneously in the positive and negative ion modes by multiple reaction monitoring (MRM). The main MS parameters of the ionized chamber are as follows: capillary voltage at 4000 V (positive)/3500 V (negative), gas temperature at 350°C, drying gas flow at 11 l/min, nebulizer pressure at 40 psi, sheath gas temperature at 400°C, and sheath gas flow at 11 l/min. Data acquisition and analysis were performed using the Agilent MassHunter WorkStation version B.07.00.
The rats were administered orally with Shenyanyihao oral solution. Blood samples from the ophthalmic venous plexus taken at 0.08, 0.17, 0.25, 0.33, 0.5, 1, 1.5, 2, 4, 6, 8, 12, 24, and 48 h after oral administration and at 0 h (predose) were collected (0.2 ml) into heparinized centrifuge tubes. The blood samples were immediately centrifuged at 4000 rpm at 4°C for 5 min, and the supernatant plasma was transferred into another tube and stored at -80°C until treatment.
Pharmacokinetic parameters were analyzed by a noncompartmental method using the WinNonlin7.0 pharmacokinetic program (Pharsight Corp., USA). The maximum concentration (Cmax) and time to reach the maximum concentration (Tmax ) were measured from values obtained from the concentration-time curve. All results were expressed as mean ± standard deviation (SD).

[1] = rat, po, 10 g/kg/day, rat plasma, oral administration of Shenyanyihao oral solution 10 g/kg/day, n = 6, mean ± SD
[2] = rat plasma, oral administration of Shenyanyihao oral solution 10 g/kg/day, n = 6, mean ± SD

| AUC0‐t (rat, in vivo, po, 10 g/kg/day) | AUC0‐∞ (rat, in vivo, po, 10 g/kg/day) | MRT0‐∞ (rat, in vivo, po, 10 g/kg/day) | V d (rat, in vivo, po, 10 g/kg/day) | MRT0‐∞ [2] | T max [2] | t 1/2 [2] | C max (rat plasma, oral administration of Shenyanyihao oral solution 10 g/kg/day, n = 6, mean ± SD, listed as stachydine) | Structure (SMILES) | Cmax [1] | Tmax [2] | half-life [2] | MRT [2] | AUC0‐t [2] | AUC0‐∞ [2] | AUMC0‐∞ [2] | CL [2] | V d [2] | C max [2] |
| --- | --- | --- | --- | --- | --- | --- | --- | --- | --- | --- | --- | --- | --- | --- | --- | --- | --- | --- |
| 76.39 ± 21.43 ng/ml∗h | 95.70 ± 25.36 ng/ml∗h | 12.50 ± 4.16 h | 18.01 ± 5.2 L/kg | – | – | – | – | COc1cc(/C=C/C(=O)O)ccc1O [Ferulic acid, ferulic acid] | – | – | – | – | – | – | – | – | – | – |
| – | – | – | – | – | – | – | – | O=c1cc(-c2ccccc2)oc2cc(O)c(O)c(O)c12 [Baicalein, baicalein] | 14.2 ± 2.59 ng/mL | 3.6 ± 0.89 h | 11.7 ± 4.78 h | 15.2 ± 5.91 h | 106.77 ± 46.19 ng/ml∗h | 128.95 ± 53.59 ng/ml∗h | 2190.95 ± 1741.10 ng/ml∗h^2 | 145 ± 50.5 mL/min/kg | 131.54 ± 23.79 L/kg | – |
| – | – | – | – | – | – | – | – | O=C(/C=C/c1ccc(O)c(O)c1)O[C@@H]1C[C@](O)(C(=O)O)C[C@@H](O)[C@H]1O [Chlorogenic acid, chlorogenic acid] | 3.53 ± 0.52 ng/mL | – | 16.7 ± 3.32 h | 15.4 ± 3.31 h | 17.05 ± 2.86 ng/ml∗h | 21.95 ± 3.34 ng/ml∗h | 338.84 ± 99.46 ng/ml∗h^2 | 697.2 ± 113 mL/min/kg | 1001.03 ± 202.53 L/kg | – |
| – | – | – | – | 12.82 ± 0.25 h | 3.20 ± 1.10 h | 9.09 ± 0.51 h | > 2500 ng/mL | C[N+]1(C)CCC[C@H]1C(=O)[O-] [Stachydrine, stachydrine] | – | – | – | – | 39256.8 ± 4031.7 ng/ml∗h | 40196.0 ± 4088.2 ng/ml∗h | 515393.7 ± 55002.7 ng/ml∗h^2 | 1 ± 0.17 mL/min/kg | 0.76 ± 0.11 L/kg | 2673.0 ± 163.0 ng/mL |
| – | – | – | – | – | – | – | – | O=C(O)[C@H]1O[C@@H](Oc2cc3oc(-c4ccccc4)cc(=O)c3c(O)c2O)[C@H](O)[C@@H](O)[C@@H]1O [Baicalin, baicalin] | > 2500 ng/mL | 2.8 ± 1.1 h | 5.01 ± 0.52 h | 8.71 ± 2 h | 26525.1 ± 15523.7 ng/ml∗h | 26566.8 ± 15520.4 ng/ml∗h | 229094.2 ± 146621.6 ng/ml∗h^2 | 28.5 ± 15 mL/min/kg | 12.89 ± 8.01 L/kg | 2983.4 ± 1344.3 ng/mL |
| – | – | – | – | – | – | – | – | O=c1c(O[C@@H]2O[C@H](CO)[C@@H](O)[C@H](O)[C@H]2O)c(-c2ccc(O)c(O)c2)oc2cc(O)cc(O)c12 [Isoquercitrin, isoquercitrin] | 1.65 ± 0.23 ng/mL | 0.5 h | 26.4 ± 3.89 h | 33.7 ± 3.63 h | 4.75 ± 0.68 ng/ml∗h | 8.98 ± 1.33 ng/ml∗h | 304.35 ± 69.29 ng/ml∗h^2 | 56.7 ± 8.33 mL/min/kg | 127.91 ± 13.82 L/kg | – |
| – | – | – | – | 12.76 ± 4.47 h | 1.40 ± 0.22 h | 12.33 ± 3.92 h | – | O=C(/C=C/c1ccc(O)c(O)c1)O[C@H]1[C@H](O[C@@H]2O[C@H](CO)[C@@H](O)[C@H](O)[C@H]2O)[C@@H](O)[C@H](OCCc2ccc(O)c(O)c2)O[C@@H]1CO [Plantamajoside, plantamajoside] | – | – | – | – | 3.99 ± 0.44 ng/ml∗h | 5.01 ± 0.71 ng/ml∗h | 66.31 ± 28.63 ng/ml∗h^2 | 78 ± 12.8 mL/min/kg | 79.97 ± 18.00 L/kg | 1.31 ± 0.23 ng/mL |
| – | – | – | – | – | – | – | – | O=C(O)c1ccc(O)c(O)c1 [Protocatechuic acid, protocatechuic acid] | 26.2 ± 11.6 ng/mL | 0.5 h | 11.3 ± 2.23 h | 6.6 ± 2.26 h | 41.96 ± 11.42 ng/ml∗h | 45.80 ± 12.60 ng/ml∗h | 307.02 ± 152.54 ng/ml∗h^2 | 25.3 ± 7.83 mL/min/kg | 24.09 ± 4.86 L/kg | – |

| Structure (SMILES) | AUC0‐t (rat, in vivo, po, 10 g/kg/day) | AUC0‐∞ (rat, in vivo, po, 10 g/kg/day) | MRT0‐∞ (rat, in vivo, po, 10 g/kg/day) | V d (rat, in vivo, po, 10 g/kg/day) | MRT0‐∞ [2] | T max [2] | t 1/2 [2] | C max (rat plasma, oral administration of Shenyanyihao oral solution 10 g/kg/day, n = 6, mean ± SD, listed as stachydine) | Cmax [1] | Tmax [2] | half-life [2] | MRT [2] | AUC0‐t [2] | AUC0‐∞ [2] | AUMC0‐∞ [2] | CL [2] | V d [2] | C max [2] |
| --- | --- | --- | --- | --- | --- | --- | --- | --- | --- | --- | --- | --- | --- | --- | --- | --- | --- | --- |
| O=C(O)[C@H](O)Cc1ccc(O)c(O)c1 [Danshensu] | – | – | – | – | 3.56 ± 1.71 h | – | 3.91 ± 2.34 h | – | – | – | – | – | 556.04 ng/ml∗h and 556.04 ± 165.66 ng/ml∗h | 569.72 ng/ml∗h and 569.72 ± 165.31 ng/ml∗h | 2049.56 ± 1061.35 ng/ml∗h^2 | 41.2 ± 14.3 mL/min/kg | 13.67 ± 8.51 L/kg | 181.79 ± 59.58 ng/mL |
